{"source": "patent US20230218577A1", "about": "“USE OF HEAT SHOCK PROTEIN INHIBITORS FOR THE TREATMENT OF NEURODEVELOPMENTAL DISORDERS” (The Children's Medical Center Corporation, priority 2020, published 2023)", "key": {"[1]": {"tested_on": "Hsp27, Hsp40, Hsp60, Hsp70, Hsp90 expression in Tsc2-sh neurons", "test": "Western blot of heat shock proteins in Tsc2-sh neurons", "assay_type": "cell-based, rat", "settings": "for down-regulating Hsp27 expression: increasing doses for four days DIV 9-13", "text": "To investigate the mechanism and explore the pharmacological window by which 17-AGG increases ciliation in Tsc2-knockdown neurons, the heat shock response in these neurons was examined. The heat shock proteins (Hsps) are divided into six families based on their size, and these proteins function in multi-component complexes that are closely inter-related (Chatterjee and Burns, Targeting Heat Shock Proteins in Cancer: A Promising Therapeutic Approach; Int J Mol Sci 18 (2017)). In addition, while most of them are constitutively expressed, some are expressed only under stress (Garrido et al., Heat shock proteins 27 and 70: anti-apoptotic proteins with tumorigenic properties; Cell Cycle 5, 2592-2601 (2006)). Expression levels of Hsp90 and other HSP family members at DIV13 and DIV20 was assessed following four days of treatment with different concentrations of the Hsp90 inhibitor 17-AGG. In the absence of any compound, Tsc2-knockdown neurons had increased levels of the small heat shock protein 27 (Hsp27) with no change in Hsp90, Hsp70, Hsp60 and Hsp40 (FIGS. 5A-L). […] In addition, there was no change observed in Hsp27 expression due to treatment with 17-AGG in Tsc2 knockdown neurons at DIV20, consistent with the lack of effect on cilia at that age (FIGS. 5G-H, FIG. 10F). Inhibition of the Hsp90 pathway by 17-AGG was confirmed by induction of Hsp40 and Hsp70, consistent with the reported release of Hsp90-dependent inhibition on HSF1 (Zou et al., Repression of heat shock transcription factor HSF1 activation by HSP90 (HSP90 complex) that forms a stress-sensitive complex with HSF1; Cell 94, 471-480 (1998)) (FIGS. 5A, C, E, G, K). It was then evaluated whether Hsp27 upregulation was linked to mTORC1 hyper-activation. […] These findings indicate that Hsp27 contributes to the mTORC1-dependent mechanism implicated in defective ciliation under loss of neuronal TSC1/2 activity.\nTo test whether Hsp27 down-regulation may contribute to restoring ciliation in Tsc2-deficient neurons, Hsp27 was knocked-down by hspB1 gene silencing using lentiviral expression of RFP-tagged Hsp27shRNA (RFP-Hsp27sh) or scrambled shRNA as a control (RFP-C).\nThe effect of CUDC-305 and NPV-HSP-990 on Hsp27 expression was then tested.\nProtein extracts were lysed in 1×SDS (22 mM Tris-HCl pH 6.8, 4% Glycerol, 0.8% SDS, 1.6% β-mercaptoethanol, bromphenol blue) sample buffer, heated to 95° C. for 5 min and stored frozen. Before being subjected to discontinuous gel electrophoresis, equal amounts of all protein lysates were verified by Coomassie gel staining. For immunoblotting, equal amounts of protein lysates were subjected to SDS-PAGE, transferred to Immobilon-P Millipore and incubated in LI-COR blocking solution at RT for 2 hrs. Primary and secondary antibodies were diluted in LI-COR blocking solution to the appropriate concentrations. LI-COR IRDye secondary antibodies were used. All images were acquired using the LI-COR Odyssey Classic imager and associated Image Studio Lite analysis software (version 5.2.5). Quantification of protein expression was performed by densitometry scans of immunoblots using LI-COR Odyssey imaging system.\nWestern blot quantifications were performed by protein normalization using GAPDH as loading control. Level of phosphorylated proteins was expressed as the ratio of phosphorylated/total level after GAPDH normalization. Low sample size datasets were tested for normality and when appropriate they were analyzed with non-parametric tests. IC50 values were calculated using the nonlinear regression equation “dose-response curves—Inhibition” of GraphPad PRISM. Data were expressed as percent of vehicle-treated Tsc2-sh neurons which were considered 100% and drug's concentrations were transformed to logarithmic 10 scale. EC50 values were calculated using the nonlinear regression equation “dose-response curves—Stimulation” of Prism. […]"}, "Tsc2-sh neurons": {"tested_on": "Tsc2-sh neurons", "test": "Toxicity: number of nuclei per field in Tsc2-sh neurons", "assay_type": "cell-based, rat", "settings": "four days (DIV9-13), nuclei stained at DIV13", "protocol": "HSP90 inhibitors were tested to determine their effect on ciliation in TSC2-deficient neurons. Tsc2 was knocked down using an shRNA in primary rat neurons. The neurons were then treated with different doses of either CUDC-305 or NPV-HSP-990. To assess toxicity for CUDC-305, Tsc2-sh neurons were treated with increasing concentrations (6 nM, 12.5 nM, 25 nM, 50 nM, 100 nM, 200 nM, 400 nM) of CUDC-305 for four days (DIV9-13) and then stained for nuclei at DIV13 to determine the number of nuclei per field. […] The effect of ciliation of Tsc2-sh neurons after treatment with CUDC-305 was then examined.\nAnother HSP90 inhibitor, NPV-HSP-990, was examined for its effect on ciliation in TSC2-deficient neurons. To assess toxicity for NPV-HSP-990, Tsc2-sh neurons were treated with increasing concentrations (0.05 nM, 0.16 nM, 0.5 nM, 1.5 nM, 4.4 nM, 13.3 nM, 40 nM) of NPV-HSP-990 for four days (DIV9-13) and then stained for nuclei at DIV 13 to determine the number of nuclei per field."}, "[2]": {"tested_on": "hspB1 mRNA in Tsc2-sh neurons", "test": "qPCR of hspB1 mRNA in Tsc2-sh neurons", "assay_type": "cell-based, rat", "settings": "50 nM between DIV9-13", "protocol": "Tsc2-sh neurons were treated with 17-AGG and it was observed that increased hspB1 expression was reversed by the same dosing scheme that prevented cilia loss (50 nM between DIV9-13) (FIGS. 6A-D). To determine whether a similar dysregulation is present in the brains of TSC patients, the gene expression data from cortical tubers and unaffected brain tissue (Martin et al., The genomic landscape of tuberous sclerosis complex; Nat Commun 8, 15816 (2017)) was examined.\nTotal RNA was prepared with the RNA kit (Zimo Research) following the instructions of the manufacturer and quantified by a spectrophotometer. A total of 1 μg of poly(A) mRNA was used for reverse transcription using the Reverse Transcriptase (BIO-RAD). Real-time PCRs were performed using Power SYBG Green PCR Master Mix (Applied Biosystems). All quantitative PCR (qPCR) reactions were performed in triplicate and normalized against glyceraldehyde-3-phosphate dehydrogenase (GAPDH). Analysis was performed using QuantStudio™ 3 Real-Time PCR System (Thermo Fisher Scientific). The qPCR cycle was: 95° C. for 10 min followed by 40 cycles at 95° C. for 15 sec and 60° C. for 1 min."}, "[3]": {"tested_on": "Hsp90 (panel of human cancer cell lines)", "settings": "read-out: mean IC50 against Hsp90, Kelland et al. 1999; cited from earlier work"}, "[4]": {"settings": "Tsc2-sh neurons, four-day dose curve"}}, "data": [{"smiles": "CN(C)c1cc2c(cc1Sc1nc3c(N)nccc3n1CCNCC(C)(C)C)OCO2", "note": "[CUDC-305, 4-amino-2-[[6-(dimethylamino)-1,3-benzodioxol-5-yl]thio]-N-(2,2-dimethylpropyl)-1H-imidazo[4,5-c]pyridine-1-ethanamine]", "values": [{"measurement": "down-regulating Hsp27 expression", "setting": "[1]; Tsc2-sh neurons", "result": "Neither compound had a significant effect"}, {"measurement": "doses at which the number of nuclei began to reduce (suggestive of toxicity)", "setting": "Tsc2-sh neurons", "result": "above 100 nM"}]}, {"smiles": "CO[C@H]1C[C@@H]2CC[C@@H](C)[C@@](O)(O2)C(=O)C(=O)N2CCCC[C@H]2C(=O)O[C@H]([C@H](C)C[C@@H]2CC[C@@H](O)[C@H](OC)C2)CC(=O)[C@H](C)/C=C(\\C)[C@@H](O)[C@@H](OC)C(=O)[C@H](C)C[C@H](C)/C=C/C=C/C=C/1C", "note": "[rapamycin]", "values": [{"measurement": "Hsp27 upregulation", "setting": "[1]; Tsc2-sh neurons, 20 nM rapamycin between DIV9-13, measured at DIV13", "result": "reduced"}]}, {"smiles": "COc1cccc(-c2cc(F)ccc2[C@H]2Cc3nc(N)nc(C)c3C(=O)N2)n1", "note": "[NPV-HSP-990, (R)-2-amino-7-((R)-4-fluoro-2-(6-methoxypyridin-2-yl)phenyl)-4-methyl-7,8-dihydropyrido[4,3-d]pyrimidin-5(6H)-one]", "values": [{"measurement": "down-regulating Hsp27 expression", "setting": "[1]; Tsc2-sh neurons", "result": "Neither compound had a significant effect"}, {"measurement": "doses at which the number of nuclei began to reduce (suggestive of toxicity)", "setting": "Tsc2-sh neurons", "result": "above 4.4 nM"}]}, {"smiles": "C=CCNC1=C2C[C@@H](C)C[C@H](OC)[C@H](O)[C@@H](C)/C=C(\\C)[C@H](OC(N)=O)[C@@H](OC)C=C/C=C(\\C)C(=O)NC(=CC1=O)C2=O", "note": "[17-AGG, 3 S,5S,6R,7S,8E,10R,11S,12E,14E)-21-(allylamino)-6-hydroxy-5,11-dimethoxy-3,7,9,15-tetramethyl-16,20,22-trioxo-17-azabicyclo[16.3.1]docosa-8,12,14,18,21-pentaen-10-yl] carbamate]", "values": [{"measurement": "Hsp40 expression", "setting": "[1]; [4]", "result": "induction"}, {"measurement": "Hsp70 expression", "setting": "[1]; [4]", "result": "induction"}, {"measurement": "aberrant Hsp27 expression", "setting": "[1]; Tsc2 knockdown cultures at DIV13, four days of 17-AGG ranging from 5-450 nM", "result": "reduced"}, {"measurement": "Hsp27 expression", "setting": "[1]; Tsc2 knockdown neurons at DIV20, four days of treatment", "result": "no change"}, {"measurement": "increased hspB1 expression", "setting": "[2]", "result": "reversed"}, {"measurement": "IC50", "setting": "[3]", "result": "[…]"}]}]}
